# Assay results taken from the supplement of paper PMC10307832.
# Legend:
# Test in all cases: relative viability (nuclei count vs DMSO), 5 days (fraction); higher = more cells survive
# Venetoclax + OSI-027 = compound: CC1(C)CCC(CN2CCN(c3ccc(C(=O)NS(=O)(=O)c4ccc(NCC5CCOCC5)c([N+](=O)[O-])c4)c(Oc4cnc5[nH]ccc5c4)c3)CC2)=C(c2ccc(Cl)cc2)C1 [Venetoclax] + COc1cccc2cc(-c3nc([C@H]4CC[C@H](C(=O)O)CC4)n4ncnc(N)c34)[nH]c12 [OSI-027] (partner 0.5 µM)
# Method in brief: (§1)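 One day after seeding in 1536-well plates, lung cancer cell lines were dosed by pin tool. Dosing was either single-drug or a fixed anchor-drug dose plus five library-drug doses (not always all listed) in √10 steps. After 5 days, nuclei were stained in one fix-and-stain step and counted on 4× images, and relative viability is the nuclei count of treated wells over that of vehicle wells, given as the median of duplicate plates.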
# Selumetinib + Luminespib = compound: Cn1cnc2c(F)c(Nc3ccc(Br)cc3Cl)c(C(=O)NOCCO)cc21 [Selumetinib] + CCNC(=O)c1noc(-c2cc(C(C)C)c(O)cc2O)c1-c1ccc(CN2CCOCC2)cc1 [Luminespib] (partner 0.01 µM)
# Method in brief: as §1
# Selumetinib + Lapatinib = compound: Cn1cnc2c(F)c(Nc3ccc(Br)cc3Cl)c(C(=O)NOCCO)cc21 [Selumetinib] + CS(=O)(=O)CCNCc1ccc(-c2ccc3ncnc(Nc4ccc(OCc5cccc(F)c5)c(Cl)c4)c3c2)o1 [Lapatinib] (partner 2 µM)
# Method in brief: as §1
# Selumetinib + AZD7762 = compound: Cn1cnc2c(F)c(Nc3ccc(Br)cc3Cl)c(C(=O)NOCCO)cc21 [Selumetinib] + NC(=O)Nc1cc(-c2cccc(F)c2)sc1C(=O)N[C@H]1CCCNC1 [AZD7762] (partner 0.2 µM)
# Method in brief: as §1
Cell Line,relative viability (Venetoclax + OSI-027; first compound 0.01 µM),relative viability (Venetoclax + OSI-027; first compound 0.03162 µM),relative viability (Venetoclax + OSI-027; first compound 0.1 µM),relative viability (Venetoclax + OSI-027; first compound 0.3162 µM),relative viability (Venetoclax + OSI-027; first compound 1 µM),relative viability (Selumetinib + Luminespib; first compound 0.02 µM),relative viability (Selumetinib + Luminespib; first compound 0.06325 µM),relative viability (Selumetinib + Luminespib; first compound 0.2 µM),relative viability (Selumetinib + Luminespib; first compound 0.6325 µM),relative viability (Selumetinib + Lapatinib; first compound 0.02 µM),relative viability (Selumetinib + Lapatinib; first compound 0.06325 µM),relative viability (Selumetinib + Lapatinib; first compound 0.2 µM),relative viability (Selumetinib + Lapatinib; first compound 0.6325 µM),relative viability (Selumetinib + AZD7762; first compound 0.02 µM),relative viability (Selumetinib + AZD7762; first compound 0.06325 µM),relative viability (Selumetinib + AZD7762; first compound 0.2 µM),relative viability (Selumetinib + AZD7762; first compound 0.6325 µM)
NCI-H1666,0.699,0.843,0.839,0.733,0.784,0.996,0.829,0.943,0.757,0.506,0.286,0.351,0.477,0.853,0.758,0.759,0.732
HCC-44,0.609,0.652,0.539,0.589,0.477,1.33,1.03,0.909,0.519,0.977,1,0.891,0.966,1.07,1.08,1.02,1.16
PC-14,0.735,0.875,0.696,0.855,0.722,0.147,0.177,0.163,0.151,0.285,0.252,0.234,0.207,0.364,0.397,0.276,0.313
HCC-827,0.799,0.839,0.776,0.733,0.755,0.621,0.694,0.438,0.244,0.175,0.182,0.187,0.18,0.2,0.195,0.194,0.209
NCI-H1915,0.587,0.624,0.596,0.612,0.586,0.887,0.744,0.587,0.373,1.06,0.93,0.831,0.682,0.81,0.663,0.646,0.453
RERF-LC-KJ,0.555,0.552,0.577,0.577,0.521,1.32,0.924,1.06,0.987,0.768,0.885,0.828,0.811,0.992,0.977,0.892,0.906
NCI-H3122,1.09,0.979,0.983,0.871,0.909,0.0969,0.0828,0.0994,0.0908,0.882,0.805,0.801,0.754,0.886,0.808,0.785,0.552
NCI-H2347,0.32,0.417,0.377,0.485,0.372,0.431,0.287,0.272,0.332,0.795,0.706,0.574,0.436,0.678,0.568,0.454,0.343
NCI-H1651,0.804,0.714,0.62,0.596,0.658,0.757,0.828,0.835,0.615,0.691,0.768,0.763,0.752,0.44,0.42,0.445,0.495
NCI-H1793,0.299,0.37,0.207,0.239,0.186,0.15,0.163,0.154,0.184,0.827,0.581,0.503,0.504,0.408,0.394,0.406,0.297
EKVX,0.668,0.731,0.646,0.76,0.63,0.931,0.587,0.657,0.665,0.171,0.263,0.241,0.168,0.713,0.594,0.613,0.502
NCI-H1437,0.942,0.888,0.845,0.763,0.802,1.15,1.13,1.03,0.782,0.588,0.528,0.351,0.252,1.03,0.941,0.834,0.603
NCI-H23,0.592,0.625,0.525,0.683,0.439,0.24,0.215,0.188,0.175,1.24,1.02,0.825,0.957,0.265,0.315,0.222,0.195
EPLC-272H,0.284,0.294,0.281,0.292,0.3,0.22,0.276,0.203,0.171,0.801,0.722,0.558,0.643,0.24,0.19,0.281,0.476
NCI-H358,0.747,0.841,0.697,0.83,0.695,0.284,0.148,0.292,0.127,0.38,0.334,0.391,0.314,0.374,0.349,0.385,0.367
H3255,0.577,0.541,0.493,0.506,0.668,1.04,0.918,1.05,0.87,0.238,0.267,0.218,0.243,0.827,0.945,0.821,0.935
NCI-H727,0.68,0.762,0.525,0.63,0.723,0.257,0.241,0.206,0.267,0.562,0.443,0.349,0.325,0.455,0.428,0.322,0.427
PC-3 [JPC-3],0.676,0.719,0.779,0.791,0.608,0.721,0.625,0.458,0.442,0.45,0.4,0.415,0.45,0.656,0.676,0.57,0.678
